# Article PMC4303209, “A novel phosphatidylinositol 3-kinase (PI3K) inhibitor directs a potent FOXO-dependent, p53-independent cell cycle arrest phenotype characterized by the differential induction of a subset of FOXO-regulated genes” (Breast Cancer Research : BCR, 2014)
# Tested on: MCF-7 breast cancer cells
# Assay: Microarray gene expression analysis (Agilent whole human genome 4 x 44K; compound vs DMSO, LIMMA log2 fold change)
# Assay type: cell-based
smiles,measurement,setting,value
Oc1cccc(-c2nc(N3CCOCC3)c3oc4ncccc4c3n2)c1 [PI-103],PRNP log2FC,,0.095
same,log2FC,,0.10
same,AARS log2FC,"Apoptosis genes, Gene 16",-0.158
same,ABL1 log2FC,"Apoptosis genes, Gene 25",-0.144
same,ABR log2FC,"Apoptosis genes, Gene 29",-0.279
same,ACTN4 log2FC,"Apoptosis genes, Gene 81",-0.244
same,ACTN1 log2FC,"Apoptosis genes, Gene 87",-0.457
same,ACTN2 log2FC,"Apoptosis genes, Gene 88",0.074
same,ACTN3 log2FC,"Apoptosis genes, Gene 89",-0.703
same,ACVR1 log2FC,"Apoptosis genes, Gene 90",0.552
same,ACVR1B log2FC,"Apoptosis genes, Gene 91",-0.214
same,ADA log2FC,"Apoptosis genes, Gene 100",-0.093
same,ADAM8 log2FC,"Apoptosis genes, Gene 101",-0.513
same,ADAR log2FC,"Apoptosis genes, Gene 103",-0.239
same,ADCYAP1 log2FC,"Apoptosis genes, Gene 116",0.042
same,ADD1 log2FC,"Apoptosis genes, Gene 118",-0.173
same,ADM log2FC,"Apoptosis genes, Gene 133",-0.875
same,ADORA1 log2FC,"Apoptosis genes, Gene 134",-1.870
same,ADORA2A log2FC,"Apoptosis genes, Gene 135",-0.109
same,ADRB1 log2FC,"Apoptosis genes, Gene 153",-0.133
same,AES log2FC,"Apoptosis genes, Gene 166",-0.056
same,AGT log2FC,"Apoptosis genes, Gene 183",-0.084
same,AHR log2FC,"Apoptosis genes, Gene 196",0.783
same,AKT1 log2FC,"Apoptosis genes, Gene 207",-0.579
same,AKT2 log2FC,"Apoptosis genes, Gene 208",-0.406
same,ALDH1A3 log2FC,"Apoptosis genes, Gene 220",-0.150
same,ALDOC log2FC,"Apoptosis genes, Gene 230",0.017
same,ALK log2FC,"Apoptosis genes, Gene 238",0.007
same,ALOX15B log2FC,"Apoptosis genes, Gene 247",-0.00234
same,ANGPT1 log2FC,"Apoptosis genes, Gene 284",-0.412
same,SLC25A4 log2FC,"Apoptosis genes, Gene 291",-0.414
same,SLC25A5 log2FC,"Apoptosis genes, Gene 292",-0.037
same,ANXA1 log2FC,"Apoptosis genes, Gene 301",0.803
same,ANXA4 log2FC,"Apoptosis genes, Gene 307",0.480
same,ANXA5 log2FC,"Apoptosis genes, Gene 308",0.167
same,APAF1 log2FC,"Apoptosis genes, Gene 317",0.575
same,NUDT2 log2FC,"Apoptosis genes, Gene 318",0.219
same,APBB2 log2FC,"Apoptosis genes, Gene 323",-0.180
same,APC log2FC,"Apoptosis genes, Gene 324",0.150
same,BIRC3 log2FC,"Apoptosis genes, Gene 330",-0.884
same,BIRC5 log2FC,"Apoptosis genes, Gene 332",0.037
same,APLP1 log2FC,"Apoptosis genes, Gene 333",-0.057
same,APOE log2FC,"Apoptosis genes, Gene 348",0.390
same,APP log2FC,"Apoptosis genes, Gene 351",0.331
same,FASLG log2FC,"Apoptosis genes, Gene 356",-0.231
same,AQP2 log2FC,"Apoptosis genes, Gene 359",-0.010
same,AR log2FC,"Apoptosis genes, Gene 367",0.287
same,ARAF log2FC,"Apoptosis genes, Gene 369",-0.336
same,ARF6 log2FC,"Apoptosis genes, Gene 382",-0.566
same,RHOB log2FC,"Apoptosis genes, Gene 388",-0.099
same,ARHGAP4 log2FC,"Apoptosis genes, Gene 393",0.173
same,ARHGDIA log2FC,"Apoptosis genes, Gene 396",-0.904
same,ARRB2 log2FC,"Apoptosis genes, Gene 409",0.444
same,ASCL1 log2FC,"Apoptosis genes, Gene 429",-0.053
same,ASNS log2FC,"Apoptosis genes, Gene 440",-0.385
same,ATF4 log2FC,"Apoptosis genes, Gene 468",-0.201
same,ATM log2FC,"Apoptosis genes, Gene 472",0.013
same,ATP2A1 log2FC,"Apoptosis genes, Gene 487",-0.025
same,AVP log2FC,"Apoptosis genes, Gene 551",-0.317
same,AXL log2FC,"Apoptosis genes, Gene 558",0.362
same,AZU1 log2FC,"Apoptosis genes, Gene 566",0.048
same,BAD log2FC,"Apoptosis genes, Gene 572",0.529
same,BAG1 log2FC,"Apoptosis genes, Gene 573",1.113
same,BAK1 log2FC,"Apoptosis genes, Gene 578",-0.383
same,BARD1 log2FC,"Apoptosis genes, Gene 580",0.336
same,BAX log2FC,"Apoptosis genes, Gene 581",-0.146
same,BCL2 log2FC,"Apoptosis genes, Gene 596",-0.342
same,BCL2A1 log2FC,"Apoptosis genes, Gene 597",-0.041
same,BCL2L1 log2FC,"Apoptosis genes, Gene 598",-0.919
same,BCL2L2 log2FC,"Apoptosis genes, Gene 599",0.313
same,BCL3 log2FC,"Apoptosis genes, Gene 602",-1.077
same,BCL6 log2FC,"Apoptosis genes, Gene 604",1.197
same,BDNF log2FC,"Apoptosis genes, Gene 627",-0.180
same,BID log2FC,"Apoptosis genes, Gene 637",-0.261
same,BIK log2FC,"Apoptosis genes, Gene 638",-0.571
same,BLM log2FC,"Apoptosis genes, Gene 641",0.071
same,BMP4 log2FC,"Apoptosis genes, Gene 652",0.224
same,BMP7 log2FC,"Apoptosis genes, Gene 655",-0.324
same,BMPR1B log2FC,"Apoptosis genes, Gene 658",-0.150
same,BMX log2FC,"Apoptosis genes, Gene 660",0.041
same,BNIP1 log2FC,"Apoptosis genes, Gene 662",0.320
same,BNIP2 log2FC,"Apoptosis genes, Gene 663",0.429
same,BNIP3 log2FC,"Apoptosis genes, Gene 664",0.757
same,BNIP3L log2FC,"Apoptosis genes, Gene 665",1.132
same,FOXL2 log2FC,"Apoptosis genes, Gene 668",-0.465
same,BRCA1 log2FC,"Apoptosis genes, Gene 672",0.741
same,BRAF log2FC,"Apoptosis genes, Gene 673",0.018
same,BRCA2 log2FC,"Apoptosis genes, Gene 675",0.100
same,BTC log2FC,"Apoptosis genes, Gene 685",0.236
same,BTG1 log2FC,"Apoptosis genes, Gene 694",1.197
same,BUB1 log2FC,"Apoptosis genes, Gene 699",0.591
same,BUB1B log2FC,"Apoptosis genes, Gene 701",0.146
same,TSPO log2FC,"Apoptosis genes, Gene 706",0.105
same,C5AR1 log2FC,"Apoptosis genes, Gene 728",0.079
same,CACNA1A log2FC,"Apoptosis genes, Gene 773",-0.069
same,CALR log2FC,"Apoptosis genes, Gene 811",-0.161
same,CAMK2B log2FC,"Apoptosis genes, Gene 816",0.010
same,CAST log2FC,"Apoptosis genes, Gene 831",0.459
same,CASP1 log2FC,"Apoptosis genes, Gene 834",0.025
same,CASP2 log2FC,"Apoptosis genes, Gene 835",-0.763
same,CASP3 log2FC,"Apoptosis genes, Gene 836",0.305
same,CASP4 log2FC,"Apoptosis genes, Gene 837",0.021
same,CASP5 log2FC,"Apoptosis genes, Gene 838",-0.191
same,CASP6 log2FC,"Apoptosis genes, Gene 839",0.478
same,CASP7 log2FC,"Apoptosis genes, Gene 840",-0.335
same,CASP8 log2FC,"Apoptosis genes, Gene 841",0.045
same,CASP9 log2FC,"Apoptosis genes, Gene 842",0.133
same,CASR log2FC,"Apoptosis genes, Gene 846",0.046
same,CAT log2FC,"Apoptosis genes, Gene 847",0.456
same,CAV1 log2FC,"Apoptosis genes, Gene 857",0.357
same,RUNX3 log2FC,"Apoptosis genes, Gene 864",-0.359
same,CBL log2FC,"Apoptosis genes, Gene 867",0.455
same,CBS log2FC,"Apoptosis genes, Gene 875",-0.393
same,KRIT1 log2FC,"Apoptosis genes, Gene 889",0.580
same,CCNG1 log2FC,"Apoptosis genes, Gene 900",0.460
same,CD2 log2FC,"Apoptosis genes, Gene 914",-0.198
same,CD3E log2FC,"Apoptosis genes, Gene 916",-0.245
same,CD3G log2FC,"Apoptosis genes, Gene 917",-0.217
same,CD5 log2FC,"Apoptosis genes, Gene 921",0.023
same,CD5L log2FC,"Apoptosis genes, Gene 922",-0.081
same,CD14 log2FC,"Apoptosis genes, Gene 929",-0.379
same,CD28 log2FC,"Apoptosis genes, Gene 940",0.036
same,CD40 log2FC,"Apoptosis genes, Gene 958",-0.612
same,CD44 log2FC,"Apoptosis genes, Gene 960",-0.262
same,CD59 log2FC,"Apoptosis genes, Gene 966",-0.006
same,CD74 log2FC,"Apoptosis genes, Gene 972",0.013
same,CDC34 log2FC,"Apoptosis genes, Gene 997",0.509
same,CDC42 log2FC,"Apoptosis genes, Gene 998",0.080
same,CDK4 log2FC,"Apoptosis genes, Gene 1019",0.170
same,CDKN1A log2FC,"Apoptosis genes, Gene 1026",-1.229
same,CDKN1B log2FC,"Apoptosis genes, Gene 1027",1.116
same,CDKN2A log2FC,"Apoptosis genes, Gene 1029",0.303
same,CDKN2D log2FC,"Apoptosis genes, Gene 1032",0.903
same,CEBPB log2FC,"Apoptosis genes, Gene 1051",-0.197
same,CFL1 log2FC,"Apoptosis genes, Gene 1072",-0.246
same,CTSC log2FC,"Apoptosis genes, Gene 1075",-0.333
same,CGB log2FC,"Apoptosis genes, Gene 1082",-0.180
same,CLU log2FC,"Apoptosis genes, Gene 1191",0.052
same,CLN3 log2FC,"Apoptosis genes, Gene 1201",-0.046
same,CCR7 log2FC,"Apoptosis genes, Gene 1236",0.113
same,PLK3 log2FC,"Apoptosis genes, Gene 1263",-1.591
same,CNR1 log2FC,"Apoptosis genes, Gene 1268",0.471
same,ATF2 log2FC,"Apoptosis genes, Gene 1386",0.878
same,CRH log2FC,"Apoptosis genes, Gene 1392",0.059
same,CRIP1 log2FC,"Apoptosis genes, Gene 1396",0.723
same,CRYAA log2FC,"Apoptosis genes, Gene 1409",-0.050
same,CRYAB log2FC,"Apoptosis genes, Gene 1410",-0.029
same,MAPK14 log2FC,"Apoptosis genes, Gene 1432",-0.303
same,CSE1L log2FC,"Apoptosis genes, Gene 1434",0.551
same,CSF2 log2FC,"Apoptosis genes, Gene 1437",-0.616
same,CSNK2A1 log2FC,"Apoptosis genes, Gene 1457",-0.647
same,CSNK2A2 log2FC,"Apoptosis genes, Gene 1459",0.329
same,CSTB log2FC,"Apoptosis genes, Gene 1476",0.261
same,NKX2-5 log2FC,"Apoptosis genes, Gene 1482",-0.572
same,CTGF log2FC,"Apoptosis genes, Gene 1490",-0.354
same,CTH log2FC,"Apoptosis genes, Gene 1491",0.722
